From US20260083865A1, “PROSTATE SPECIFIC MEMBRANE ANTIGEN (PSMA) LIGANDS AND USE THEREOF” (priority 2022, published 2026)
Like-named read-outs stand apart in the source and are kept apart here. Blank lines part the entries; values can stand above or below the molecule they belong to. Numbered stars: 1 amine (or outer) side, 2 acyl side, 3 side chain; on linkers, the order of the positions; unused ones are H or OH. Bridge positions count the residues as written; N and C are the ends. Square brackets hold non-standard residues; d marks the D form. Peptide text beside a SMILES is read from it. * marks the point of attachment. TtdsdLys(DOTA)NH2 = NC(=O)[C@@H](CCCCNC(=O)CN1CCN(CC(=O)O)CCN(CC(=O)O)CCN(CC(=O)O)CC1)NC(=O)CCC(=O)NCCCOCCOCCOCCCN*; X7 = O=C(O)CN1CCN(CC(=O)O)CCN(CC(=O)NC2CCN(CC(=O)*)CC2)CCN(CC(=O)O)CC1; DOTA = O=C(O)CN1CCN(CC(=O)O)CCN(CC(=O)*)CCN(CC(=O)O)CC1; Phe(4-Cl) = N[C@@H](Cc1ccc(Cl)cc1)C(=O)O; Arg(Me) = CNC(=N)NCCC[C@H](N)C(=O)O; tBuAla = CC(C)(C)C[C@H](N)C(=O)O; X1 = O=C(CC1CCN([*:1])CC1)[*:2]; Lys(Me) = CNCCCC[C@H](N)C(=O)O; Tle = CC(C)(C)[C@H](N)C(=O)O; X15 = O=C1NC(=O)C(CC(=O)*)N1; Hexanoyl = CCCCCC(=O)*; Aib = CC(C)(N)C(=O)O

What was measured:
[1] = biological target: T1, Fc-fusion protein of human PSMA (hPSMA-Fc) (Homo sapiens, UniProt Q04609); test: Surface plasmon resonance assay (Biacore T200, single cycle kinetic); assay type: binding; details: read-out: pKD CAT (converted)
T1 construct: purchased Acro Biosystems PSA-H5264
Method in brief: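 hPSMA-Fc was captured (~1000 RU) on an Fc-binding-peptide CM5 chip, and compounds were run in single cycle kinetic mode at 25° C in HBST with 0.1% DMSO. Double-blank-corrected sensorgrams were fitted to a 1:1 Langmuir model to give KD, reported as pKD.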

[2] = biological target: T2, PSMA-expressing C4-2 cells (Homo sapiens, UniProt Q04609); test: FACS binding assay (competition with 50 nM PSM-0183); details: read-out: pIC50 [C4-2] CAT (converted)
T2 construct: PSMA-expressing C4-2 cells (ATCC, Cat. No. CRL-3314) were cultured in RPMI-1640; host or cells: C4-2 cells
Method in brief: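 C4-2 cells were incubated 1 h at 4 °C with 50 nM AF488-labelled peptide PSM-0183 plus increasing test compound concentrations, then washed twice in ice-cold buffer. Median fluorescence in the AF488 channel was read by flow cytometry. IC50/pIC50 was derived by 4PL fitting of MFI versus concentration.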

[3] = PSMA SPR assay, hPSMA-Fc, 25° C., pKD category
[4] = FACS binding, PSMA-expressing C4-2 cells, pIC50 category
[5] = FACS binding, C4-2 cells, category

T1 sequence (Q04609 44-750 limits assumed): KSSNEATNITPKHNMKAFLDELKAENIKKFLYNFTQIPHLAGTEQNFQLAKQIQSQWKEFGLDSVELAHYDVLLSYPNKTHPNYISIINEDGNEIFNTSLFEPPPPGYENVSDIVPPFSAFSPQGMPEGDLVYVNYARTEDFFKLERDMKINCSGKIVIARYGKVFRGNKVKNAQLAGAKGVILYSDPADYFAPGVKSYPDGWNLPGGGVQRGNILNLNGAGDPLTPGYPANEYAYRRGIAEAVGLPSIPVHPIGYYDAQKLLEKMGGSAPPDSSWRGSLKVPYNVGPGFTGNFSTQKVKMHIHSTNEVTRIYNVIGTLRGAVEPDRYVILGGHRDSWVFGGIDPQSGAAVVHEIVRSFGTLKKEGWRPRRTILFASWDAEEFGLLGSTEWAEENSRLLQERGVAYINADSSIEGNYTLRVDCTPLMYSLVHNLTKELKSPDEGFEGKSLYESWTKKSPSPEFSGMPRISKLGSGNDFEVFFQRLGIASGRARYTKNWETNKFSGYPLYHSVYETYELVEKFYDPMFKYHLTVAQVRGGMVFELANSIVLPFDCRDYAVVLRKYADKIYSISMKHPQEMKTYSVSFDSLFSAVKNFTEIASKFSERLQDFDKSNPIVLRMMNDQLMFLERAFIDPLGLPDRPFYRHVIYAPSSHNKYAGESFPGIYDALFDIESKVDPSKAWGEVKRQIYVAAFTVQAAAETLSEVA
T2 sequence (Q04609 whole entry): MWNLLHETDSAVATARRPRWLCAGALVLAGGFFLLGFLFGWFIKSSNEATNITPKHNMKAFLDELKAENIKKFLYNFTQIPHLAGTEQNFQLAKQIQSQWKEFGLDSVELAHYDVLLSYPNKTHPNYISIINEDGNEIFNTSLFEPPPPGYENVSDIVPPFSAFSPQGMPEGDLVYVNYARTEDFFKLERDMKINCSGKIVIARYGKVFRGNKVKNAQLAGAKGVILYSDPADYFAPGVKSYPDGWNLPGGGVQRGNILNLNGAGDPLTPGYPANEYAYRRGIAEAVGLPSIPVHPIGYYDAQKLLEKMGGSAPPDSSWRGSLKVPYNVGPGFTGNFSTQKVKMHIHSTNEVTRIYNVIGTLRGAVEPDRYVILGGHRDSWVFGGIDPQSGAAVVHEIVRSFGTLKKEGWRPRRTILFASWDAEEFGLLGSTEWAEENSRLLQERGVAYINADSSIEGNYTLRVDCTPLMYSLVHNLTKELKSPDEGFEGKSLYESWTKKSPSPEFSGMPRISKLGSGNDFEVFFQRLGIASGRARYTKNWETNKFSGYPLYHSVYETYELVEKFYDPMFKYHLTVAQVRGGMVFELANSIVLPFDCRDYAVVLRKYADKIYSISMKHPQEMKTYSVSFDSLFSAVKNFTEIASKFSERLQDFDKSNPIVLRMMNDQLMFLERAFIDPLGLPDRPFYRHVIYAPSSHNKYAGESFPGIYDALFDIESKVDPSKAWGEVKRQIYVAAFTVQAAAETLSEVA

SMILES: CC(=O)NC(C)(C)C(=O)N[C@@H](Cc1ccc(Cl)cc1)C(=O)N[C@H]1CSSC[C@@H](C(=O)N[C@H](C(=O)N[C@H](C(N)=O)[C@@H](C)O)C(C)(C)C)NC(=O)[C@H](CC(N)=O)NC(=O)[C@H](CCCCNC(=O)CN2CCC(NC(=O)CN3CCN(CC(=O)O)CCN(CC(=O)O)CCN(CC(=O)O)CC3)CC2)NC(=O)[C@H](CCCNC(=N)N)NC(=O)[C@H](CCCCN)NC1=O [PSM-0282, Ac-Aib-Pcf-[Cys-Lys-Arg-Lys(DOTA-APAc)-Asn-Cys]-Tle-Thr-NH2] (Ac-[Aib][Phe(4-Cl)]CKRK(X7)NC[Tle]T-NH2; disulfide 3-8)
Kd [1, 3]: < 12.6 nM | IC50 [2, 4]: < 200 nM

SMILES: CCCCCC(=O)N[C@H](C(=O)N[C@@H](C)C(=O)N[C@@H](Cc1ccccc1)C(=O)N[C@H]1CSSC[C@@H](C(=O)N[C@H](C(=O)N[C@H](C(=O)N[C@@H](CC(=O)O)C(=O)NCCCOCCOCCOCCCNC(=O)CCC(=O)N[C@H](CCCCNC(=O)CN2CCN(CC(=O)O)CCN(CC(=O)O)CCN(CC(=O)O)CC2)C(N)=O)[C@@H](C)O)C(C)(C)C)NC(=O)[C@H](CC(N)=O)NC(=O)[C@H](C)NC(=O)[C@H](CCCNC(=N)N)NC(=O)[C@H](CCCCN)NC1=O)[C@@H](C)O [PSM-0568, Hex-Thr-Ala-Phe-[Cys-Lys-Arg-Ala-Asn-Cys]-Tle-Thr-Asp-Ttds-lys(DOTA)-NH2] (Hexanoyl-TAFCKRANC[Tle]TD-{TtdsdLys(DOTA)NH2}; disulfide 4-9)
Kd ([1]; PSMA SPR assay, category): 12.6 to 126 nM | IC50 [2, 5]: < 200 nM

SMILES: CNCCCC[C@@H]1NC(=O)[C@@H](NC(=O)[C@H](Cc2ccc(Cl)cc2)NC(=O)C(C)(C)NC(=O)[C@@H](NC(=O)CC2CCN(C(=O)CN3CCN(CC(=O)O)CCN(CC(=O)O)CCN(CC(=O)O)CC3)CC2)[C@@H](C)O)CSSC[C@@H](C(=O)N[C@H](C(=O)N[C@H](C(N)=O)[C@@H](C)O)C(C)(C)C)NC(=O)[C@H](CC(N)=O)NC(=O)[C@@H](C)NC(=O)[C@H](CCCNC(=N)NC)NC1=O [PSM-0246, DOTA-Cmp-Thr-Aib-Pcf-[Cys-Lys(Me)-Arg(Me)-ala-Asn-Cys]-Tle-Thr-NH2] ({DOTA}-[X1]T[Aib][Phe(4-Cl)]C[Lys(Me)][Arg(Me)][dA]NC[Tle]T-NH2; disulfide 5-10)
Kd ([1]; SPR, hPSMA-Fc, single cycle kinetic, 25° C., category): < 12.6 nM | IC50 ([2]; FACS binding, C4-2 cells, competition with 50 nM PSM-0183, category): < 200 nM

SMILES: CC(=O)N[C@H](C(=O)NC(C)(C)C(=O)N[C@@H](Cc1ccccc1)C(=O)N[C@H]1CSSC[C@@H](C(=O)N[C@H](C(=O)N[C@H](C(=O)NCCCOCCOCCOCCCNC(=O)CCC(=O)N[C@H](CCCCNC(=O)CN2CCN(CC(=O)O)CCN(CC(=O)O)CCN(CC(=O)O)CC2)C(N)=O)[C@@H](C)O)C(C)(C)C)NC(=O)[C@H](CC(N)=O)NC(=O)C(C)(C)NC(=O)[C@H](CCC(N)=O)NC(=O)[C@H](CCCCN)NC1=O)[C@@H](C)O [PSM-0303, Ac-Thr-Aib-Phe-[Cys-Lys-Gln-Aib-Asn-Cys]-Tle-Thr-Ttds-lys(DOTA)-NH2] (Ac-T[Aib]FCKQ[Aib]NC[Tle]T-{TtdsdLys(DOTA)NH2}; disulfide 4-9)
Kd [1, 3]: 12.6 to 126 nM | IC50 [2, 4]: 200 to 1260 nM

Results, then the molecule that gave them:

Kd ([1]; PSMA SPR assay, category): 12.6 to 126 nM | IC50 [2, 5]: < 200 nM
SMILES: CC(=O)N[C@H](C(=O)NC(C)(C)C(=O)N[C@@H](Cc1ccccc1)C(=O)N[C@H]1CSSC[C@@H](C(=O)N[C@@H](CC(C)(C)C)C(N)=O)NC(=O)[C@H](CC(N)=O)NC(=O)C(C)(C)NC(=O)[C@H](CCCNC(=N)N)NC(=O)[C@H](CCCCN)NC1=O)[C@@H](C)O [PSM-0560, Ac-Thr-Aib-Phe-[Cys-Lys-Arg-Aib-Asn-Cys]-Npg-NH2] (Ac-T[Aib]FCKR[Aib]NC[tBuAla]-NH2; disulfide 4-9)

Kd ([1]; pKD category for PSMA SPR activity assay, hPSMA-Fc, 25° C.): < 12.6 nM | IC50 ([2]; pIC50 category of FACS binding, C4-2 cells): < 200 nM
SMILES: C[C@@H](O)[C@H](NC(=O)[C@@H](NC(=O)[C@@H]1CSSC[C@H](NC(=O)[C@H](Cc2ccccc2)NC(=O)C(C)(C)NC(=O)CC2NC(=O)NC2=O)C(=O)N[C@@H](CCCCN)C(=O)N[C@@H](CCCNC(=N)N)C(=O)NC(C)(C)C(=O)N[C@@H](CC(N)=O)C(=O)N1)C(C)(C)C)C(N)=O (stereo partly drawn) [PSM-0518, HYDAc-Aib-Phe-[Cys-Lys-Arg-Aib-Asn-Cys]-Tle-Thr-NH2] (X15-[Aib]FCKR[Aib]NC[Tle]T-NH2; disulfide 3-8)

Kd [1, 3]: < 12.6 nM | IC50 [2, 4]: < 200 nM
SMILES: CC(=O)N[C@H](C(=O)NC(C)(C)C(=O)N[C@@H](Cc1ccc(Cl)cc1)C(=O)N[C@H]1CSSC[C@@H](C(=O)N[C@H](C(=O)N[C@H](C(N)=O)[C@@H](C)O)C(C)(C)C)NC(=O)[C@H](CC(N)=O)NC(=O)C(C)(C)NC(=O)[C@H](CCCNC(=N)N)NC(=O)[C@H](CCCCN)NC1=O)[C@@H](C)O [PSM-0336, Ac-Thr-Aib-Pcf-[Cys-Lys-Arg-Aib-Asn-Cys]-Tle-Thr-NH2] (Ac-T[Aib][Phe(4-Cl)]CKR[Aib]NC[Tle]T-NH2; disulfide 4-9)
